pEC50, pIC50: −log10 of the molar value.
What was measured:
[1] = system: IL-1β cytokine output from isolated primary human monocytes; assay: Primary human monocyte AlphaLISA IL-1β cytokine assay; format: cell-based; settings: CD14+ primary human monocytes, LPS 24 hr then Nigericin 1 hour
Experimental: Measuring Inhibitory Effects on IL-1β and IL-6 Cytokine Output from Isolated Primary Human Monocytes
The cytokine inhibition profiles of compounds of formula (IW-1) were determined in a CD14^+ isolated primary human monocyte cell assay. All assays were performed in RPMI-1640 growth medium (Gibco), supplemented with heat-inactivated fetal bovine serum (FBS) and 1% penicillin-streptomycin unless specified otherwise. The IL-1β and IL-6 cytokine inhibition assays were each run in a background of isolated primary human monocyte cells as described below. All reagents described were from Sigma-Aldrich unless specified otherwise. Compounds were prepared as 100 mM DMSO stocks.
Primary peripheral blood mononuclear cells (PBMCs) were isolated from human whole blood. Following PBMC isolation, a CD14^+ monocyte isolation step was conducted whereby CD14^+ magnetic beads (Miltenyi Biotec) were incubated for 15 minutes with the PBMC suspension that was previously treated with ice cold T-cell isolation buffer (PBS, 0.5% BSA, 2 mM EDTA). Following bead incubation, the treated cell suspension was passed through a magnetic separation column designed to positively select for magnetically labelled cells. The isolated CD14^+ monocytes were subsequently plated at the appropriate cell density for the assay, prior to compound treatment on the day of plating. Working concentrations of compounds were prepared separately in RPMI-1640 only growth medium and pre-incubated with the cells for 30 minutes (37° C./5% CO2). Following the 30 minute compound pre-incubation, primary monocytes were treated with an appropriate concentration of LPS and subsequently incubated for a 24 hr period (37° C./5% CO2). An appropriate final concentration of Nigericin was then dispensed into the primary monocyte plates and incubated for 1 hour (37° C./5% CO2) before monocyte supernatants were harvested and collected in separate polypropylene 96-well holding plates prior to commencing the AlphaLISA cytokine assay.
Reagents from each of the IL-1β and IL-6 commercial kits (Perkin Elmer) were prepared and run according to the manufacturer's instructions. Subsequently, fluorescence signal was measured in a microplate reader (EnVision® Multilabel Reader, Perkin Elmer).
Percentage inhibition was calculated per cytokine by normalising the sample data to the high and low controls used within each plate (+/−LPS respectively). Percentage inhibition was then plotted against compound concentration and the 50% inhibitory concentration (IC50) was determined from the resultant concentration-response curve.

hepatocytes [2] = assay: Hepatocyte stability assay (human); format: in vitro ADME; settings: 10 μM compound, 0.5×10^6 cells/mL, 60 minutes
Description: (§1) Defrosted cryo-preserved hepatocytes (viability >70%) are used to determine the metabolic stability of a compound via calculation of intrinsic clearance (Clint; a measure of the removal of a compound from the liver in the absence of blood flow and cell binding). Clearance data are particularly important for in vitro work as they can be used in combination with in vivo data to predict the half-life and oral bioavailability of a drug.
(§2) The metabolic stability in hepatocytes assay involves a time-dependent reaction using both positive and negative controls. The cells must be pre-incubated at 37° C. then spiked with test compound (and positive control); samples taken at pre-determined time intervals are analysed to monitor the change in concentration of the initial drug compound over 60 minutes. A buffer incubation reaction (with no hepatocytes present) acts as a negative control and two cocktail solutions, containing compounds with known high and low clearance values (verapamil/7-hydroxycoumarin and propranolol/diltiazem), act as positive controls. • 1. The assay is run with a cell concentration of 0.5×10^6 cells/mL in Leibovitz buffer. • 2. All compounds and controls are run in duplicate. • 3. Compound concentration is 10 μM. • 4. All compounds and controls are incubated with both cells and buffer to show turnover is due to hepatic metabolism. • 5. All wells on the incubation plate will have 326.7 μL of either cells or buffer added. • 6. Prior to assay, cell and buffer-only incubation plates are preincubated for 10 mins at 37° C. • 7. The assay is initiated by adding compounds, 3.3 μL of 1 mM in 10% DMSO-90% Buffer; final DMSO concentration is 0.1%. • 8. Samples are taken at regular timepoints (0, 5, 10, 20, 40, 60 min) until 60 mins. • 9. Sample volume is 40 μL and it is added to 160 μL of crash solvent (acetonitrile with internal standard) and stored on ice. • 10. At the end of the assay, the crash plates are centrifuged at 3500 rpm for 20 mins at 4° C. • 11. 80 μL of clear supernatant is removed and mixed with 80 μL of deionised water before being analysed by LC-MS/MS.
(§3) Raw LC-MS/MS data are exported to, and analysed in, Microsoft Excel for determination of intrinsic clearance. The percentage remaining of a compound is monitored using the peak area of the initial concentration as 100%. Intrinsic clearance and half-life values are calculated using a graph of the natural log of percentage remaining versus the time of reaction in minutes. Half-life (min) and intrinsic clearance (Clint in μL min^−1 10^−6 cells) values are calculated using the gradient of the graph (the elimination rate constant, k) and Equations 1 and 2.

hepatocytes [3] = assay: Hepatocyte stability assay (mouse); format: in vitro ADME; settings: 10 μM compound, 0.5×10^6 cells/mL, 60 minutes
Description: as §1, §2, §3

[4] = system: IL-1β cytokine output from THP-1s; assay: THP-1 AlphaLISA IL-1β cytokine assay; format: cell-based, human; settings: Homo sapiens, THP-1, PMA-differentiated THP-1 cells, LPS 24 hr then Nigericin 1 hour; read-out: IL-1β (IC50)
How it was run: (§4)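 Cells are differentiated with PMA over 72 h, switched to 1% FBS medium and treated with compound for 30 min before LPS stimulation for 24 h. Nigericin is added for a final hour, and secreted cytokine is measured by AlphaLISA, with IC50 fitted from percent inhibition.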

[5] = system: IL-6 cytokine output from THP-1s; assay: THP-1 AlphaLISA IL-6 cytokine assay; format: cell-based, human; settings: Homo sapiens; PMA-differentiated THP-1 cells, LPS 24 hr then Nigericin 1 hour
How it was run: as §4

NQO1 = NQO1 enzyme activation assay as a readout of NRF2 activation in THP-1 cells; format: cell-based; settings: Homo sapiens; for Emax: THP-1, percentage activation at top concentration, normalised to DMF (100%) and vehicle controls; for pEC50: differentiated THP-1 cells, LPS, 48 hr
Experimental: NQO1 Enzyme Activation Assay as a Readout of NRF2 Activation in THP-1 Cellular Background
NAD(P)H dehydrogenase [quinone] […] Induction of this gene is concomitant with the inhibition of proinflammatory cytokine transcription and suppression of the inflammatory response (Kobayashi E. H. et al., 2016). The NQO1 enzyme activation activities of compounds of formula (IW-1) were determined using a cellular based NQO1 activation assay (Abcam). The NQO1 activation assay was run in differentiated THP-1 cells (a human monocyte-like cell line) as described below. All reagents described are from Sigma-Aldrich unless specified otherwise. Compounds were prepared as 10 mM DMSO stocks.
THP-1 cells were expanded as a suspension up to 80% confluence in appropriate growth medium. Cells were harvested, suspended, treated with phorbol 12-myristate 13-acetate (PMA) and plated according to the cell density required for each plate format over a 72 hr period (37° C./5% CO2).
Following 72 hrs of THP-1 cell incubation, cellular medium was removed and replaced with fresh media. Working concentrations of compounds were prepared and pre-incubated for 30 minutes (37° C./5% CO2). Compound treatment was then applied to the PMA treated THP-1 cell plate followed by LPS treatment. A ‘low’ (DMSO vehicle only) control and ‘high’ (designated concentration of dimethyl fumarate) was applied to each plate at the point of compound treatment. Cells were subsequently incubated for a 48 hr period (37° C./5% C02) after which all NQO1 assay reagents were prepared according to the manufacturer's instructions. NQO1 extraction buffer was applied to PBS washed THP-1 cells and incubated on ice for 15 minutes to prepare THP-1 lysates for the NQO1 activity assay. THP-1 lysates were diluted 1:5 with PBS and treated with a 1:1 volume of kit prepared NQO1 Reaction Buffer. Absorbance was subsequently measured kinetically on an appropriate reader over a 6 minute period.
For activation determination, the fold change in response per well was determined by first calculating the average NQO1 activation data for the vehicle control and then dividing the individual well response by the averaged NQO1 response for the vehicle control as shown below: Fold change=(Sample value)/MeanMin Where ‘Min’=vehicle control only
The relative 50% activation concentration (EC50) was determined from the resulting fold change response curve. The maximum efficacy (Emax) was reported as the percentage activation calculated at the top concentration of compound used in the titration applied. If a full curve was unattainable preventing a correct curve fit, the Emax value was extrapolated using existing curve data. All percentage activation data were normalised to the DMF and vehicle controls, meaning the Emax represents the percentage […] achieved by a compound at a particular concentration relative to that achieved by DMF (set as the ‘High’ control and therefore representative of 100% activation).

NRF2 = NRF2 +/-GSH activation assay (DiscoverX PathHunter NRF2 translocation kit, U2OS cells); format: cell-based; settings: Homo sapiens, GSH condition not stated in Table 5; for Emax: U2OS, normalised to dimethyl fumarate 'High' control, read-out: NRF2 activation Emax; for pEC50: U2OS PathHunter cells, 6 hours, read-out: NRF2 activation EC50
How it was run: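 PathHunter U2OS cells, plated 24 hrs, measured NRF2 nuclear translocation by enzyme-fragment complementation luminescence after 6 hours compound exposure at 37 °C. For +GSH, compound was pre-incubated 30 minutes with GSH (6 mM working stock). EC50 from % activation normalised to dimethyl fumarate high control.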

[6] = Mouse pharmacokinetic study, intravenous dosing; format: in vivo; settings: male, C57BL/6, mouse, iv, plasma, 10 mg/kg i.v., read-out: Parent compound concentration following intravenous administration
How it was run: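 Male C57BL/6 mice (6-8 weeks, fed ad libitum) received 10 mg/kg IV by tail vein in 10% DMSO/HP-β-CD vehicle, or 100 mg/kg by oral gavage in DMSO/HPMC/Tween 80. Facial-vein blood was taken at 9 time points (N=3 each) into K2EDTA; plasma concentrations were measured by LC-MS/MS.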

[7] = Hepatocyte stability assay (human); format: in vitro ADME; settings: cryopreserved hepatocytes, 10 μM compound, 0.5×10^6 cells/mL, 60 minutes, read-out: T½
Description: as §1, §2, §3

[8] = Hepatocyte stability assay (mouse); format: in vitro ADME; settings: cryopreserved hepatocytes, 10 μM compound, 0.5×10^6 cells/mL, 60 minutes, read-out: T½
Description: as §1, §2, §3

| SMILES | CIint (μL min^−1 10^−6 cells) (hepatocytes [2]) | CIint (μL min^−1 10^−6 cells) (hepatocytes [3]) | pIC50 [4] | pIC50 [5] | Emax (NQO1) | pEC50 (NQO1) | Emax (NRF2) | pEC50 (NRF2) | further results |
| --- | --- | --- | --- | --- | --- | --- | --- | --- | --- |
| C=C(CC(=O)OCCCCCCCC)C(=O)O [4-octyl itaconate, 4-Octyl itaconate, reference compound] | 401 μL min^−1 10^−6 cells | 351 μL min^−1 10^−6 cells | – | – | – | – | – | – | pIC50 [1]: < 4.00; T½ (hepatocytes [2]): 4 min; T½ (hepatocytes [3]): 4 min |
| C=C(CC(=O)OCCCCCCCC)C(=O)OCCN1CCCC1=O [Example 5, 4-octyl 1-(2-(2-oxopyrrolidin-1-yl)ethyl) 2-methylenesuccinate] | – | – | 5.19 | 5.70 | 81% | 5.23 | 216% | 5.24 | – |
| C=C(CC(=O)OCCCCCC)C(=O)OCCS(C)(=O)=O [Example 14, 4-hexyl 1-(2-(methylsulfonyl)ethyl) 2-methylenesuccinate] | – | – | 5.80 | 5.68 | 180% | 4.84 | 189% | 5.06 | – |
| C=C(CC(=O)OCCCOc1ccccc1)C(=O)OCCS(C)(=O)=O [Example 20, 1-(2-(methylsulfonyl)ethyl) 4-(3-phenoxypropyl) 2-methylenesuccinate] | – | – | 5.25 | 5.47 | 224% | 4.70 | 116% | 4.87 | – |
| C=C(CC(=O)OCCCCCCCC)C(=O)OCCS(=O)(=O)c1ccc(C)cc1 [Example 40, 4-octyl 1-(2-tosylethyl) 2-methylenesuccinate] | – | – | 5.77 | 5.47 | 56% | 4.78 | – | – | – |
| C=C(CC(=O)O[C@H]1C[C@H]2CC[C@]1(C)C2(C)C)C(=O)OCC(=O)O [Example 179, 2-((2-methylene-4-oxo-4-(((1R,2S,4R)-1,7,7-trimethylbicyclo[2.2.1]heptan-2-yl)oxy)butanoyl)oxy)acetic acid] | 13 μL min^−1 10^−6 cells | 129 μL min^−1 10^−6 cells | 4.96 | – | – | – | – | – | concentration at 0.05 h ([6]; time 0.05 h): 17900 ng/mL; concentration at 0.133 h ([6]; time 0.133 h): 5320 ng/mL; concentration at 0.25 h ([6]; time 0.25 h): 1810 ng/mL; concentration at 0.5 h ([6]; time 0.5 h): 456 ng/mL; concentration at 1 h ([6]; time 1 h): 13 ng/mL; concentration at 2 h ([6]; time 2 h): < 4 ng/mL; concentration at 4 h ([6]; time 4 h): < 4 ng/mL; concentration at 6 h ([6]; time 6 h): < 4 ng/mL; concentration at 8 h ([6]; time 8 h): < 4 ng/mL; half-life at 10 μM [7]: 129 min; half-life at 10 μM [8]: 13 min |

Reference: patent US12390437B2, “Itaconic acid derivatives and uses thereof intreating an inflammatory disease or a disease associated with an undesirable immune response” (Sitryx Therapeutics Limited, priority 2019, dated 2025)
